These results are taken from US20140121126A1, “METHODS OF DETECTING AXL AND GAS6 IN CANCER PATIENTS” (Memorial Sloan-Kettering Cancer Center, priority 2012, published 2014).

For one experiment, the system named is HCC827 ER1-ER5 sublines. Briefly: Cell viability assay (CellTiterGLO), erlotinib resistant HCC827 ER1-ER5 sublines. The following applies: for effect of single-agent treatment on cell viability: 1 μM alone, HCC827 ER cells; for effect on sensitivity to concurrent erlotinib treatment: AXL inhibitor 1 μM plus erlotinib, each ER subline.
In another experiment the test system is ER4 cells. Briefly: Apoptosis by PARP cleavage and BIM induction in ER4 cells. Type of experiment: cell-based, human. The following applies: 24 hour exposure; AD57 1 micromolar, AD80 1 micromolar. On the procedure: FIG. 22. Induction of apoptosis by combined EGFR and AXL inhibition. […] 24-hour drug exposure. Apoptosis measured by induction of PARP cleavage and BIM induction.

The test system of another experiment is HCC827 ER1 tumors. Briefly: HCC827 ER1 xenograft tumors treated with erlotinib. Format: in vivo, mice. Conditions: ER1 tumors transduced with non-target shRNA, 12.5 mg/kg/day. On the procedure:
(§1) Tumorigenesis assays. Human lung cancer cells (as indicated) were injected subcutaneously into the flanks of CB17 SCID mice (Taconic). […] Tumor measurements were made on days indicated and expressed as described in the descriptions of the drawings. All animal experiments were performed in compliance with the guidelines of the Research Animal Resource Center of the Memorial Sloan-Kettering Cancer Center.

Experiment [1] relates to parental HCC827 cells. Briefly: Western blot of signaling biomarkers, parental HCC827 cells. Type of experiment: cell-based, human. The following applies: erlotinib 100 nM. On the procedure:
(§2) Western blot analysis. Cells were serum starved overnight and whole cell lysates were prepared using 10% TCA lysis or RIPA buffer and clarified by centrifugation. Proteins were separated by 10% SDS-PAGE gel and transferred onto PVDF membranes (Invitrogen) for Western blot analysis. After primary antibody incubation overnight, washing and incubation with secondary antibodies, blots were developed with a chemiluminescence system (Pierce).

Another experiment has as its system HCC827 xenograft tumors. On the procedure: as §1
The test system of the next experiment is PC9 cells. Kind of experiment: Cell viability (CellTiterGLO), PC9 cells. Format: cell-based. The following applies: Homo sapiens, PC-9, read-out: erlotinib IC50, EGFR exon 19-deletion mutant. The source says:
(§3) To address these questions, we generated cDNA constructs that encode either wild type (WT) AXL or a kinase-impaired mutant of AXL in which a key conserved lysine within the kinase domain was changed to arginine (K567R).
(§4) Cell growth and viability assays.
For orientation: Cellular ATP, detected with luciferase, serves as a proxy for viable cell number.

The next experiment relates to H3255 ER sublines. Kind of experiment: Cell viability, erlotinib-resistant H3255 ER sublines. Format: cell-based, human. The following applies: for effect on sensitivity to concurrent erlotinib treatment: H3255 ER sublines.
Source text: Establishment of erlotinib-resistant subclones.
as §4

For another experiment, the system named is H3255 cells. Briefly: Cell viability, parental H3255 cells. Conditions: Homo sapiens, NCI-H3255, read-out: erlotinib IC50, EGFR L858R. Type of experiment: cell-based.
The subject of the next experiment is HCC827 ER1 and ER2 cells. Briefly: Western blot of signaling biomarkers, HCC827 ER1 and ER2 cells. Format: cell-based, human. The following applies: for erlotinib effects (decreased pEGFR, pERK, pAKT, pRelA, increased cleaved Parp) with concurrent AXL inhibitor: concurrent treatment with erlotinib, 48 h. The procedure:
as §2
A general note: Immunoblotting shows a protein as a band on a membrane.

Another experiment has as its system HCC827 tumors. Briefly: Western blot of signaling biomarkers in HCC827 xenograft tumors. Type of experiment: in vivo, mice. On the procedure: as §2, §1
Experiment [2] concerns HCC827 cells expressing AXL constructs. Briefly: Viability of HCC827 cells expressing AXL cDNA constructs. Format: cell-based, human.
Source text: as §3, §4
(§5) AXL cDNA and overexpression studies. The AXL gene with an HA tag at the C-terminus was amplified by overlapping PCR using cDNA generated from ER3 cells and cloned into pcDNA3.1 (+) vector. Amino acid changes (K567R or L620M) were introduced using the Strategene QuickChange Mutagenesis Kit, according to the manufacturer's protocol. The accuracy of the constructs was confirmed by DNA sequencing. Cells were transfected with the AXL-expressing vectors or empty vector as a control by using FuGENE HD reagent according to the manufacturer's protocol (Roche Applied Sciences, Indianapolis, Ind., USA). Stable HCC827 subclones resistant to the selection antibiotic, 500 μg/ml G418 were generated 24 hours post-transfection. Empty-vector expressing HCC827 cells were generated as a control. AXL protein expression was detected by using anti-HA probe (Santa Cruz Biotechnology).

The test system of experiment [3] is parental HCC827 cells. Kind of experiment: Migration and adhesion, parental HCC827 cells. Type of experiment: cell-based, human. The following applies: XL-880 1 μM (FIG. 4c-d). On the procedure:
(§6) [Vuoriluoto, K. et al. Oncogene 30, 1436-1448 (2011)] […] Together, the data support a possible role for an EMT that is marked by vimentin overexpression in the development of acquired EGFR TKI resistance that is driven by AXL in this model of human EGFR mutant lung cancer.
(§7) Migration and adhesion studies. 180,000 cells were plated onto 3.5 cm cell culture dishes. At 30 minutes, the dishes were washed and cells were fixed and stained for counting. Average cell numbers of 5 random 100× fields under light microscope are presented with ±SEM. Migration: 10,000 cells in 200 μl medium without FBS were placed in the upper chamber of transwells (6.5 mm diameter, 8 μm pore size polycarbonate membrane, Corning), and the lower chamber filled with 1 ml of medium with 10% FBS supplemented with or without the indicated drug treatments. After incubation for 16 hours, non-migrating cells were removed with cotton swabs, and the cells that migrated into the lower surface of the filters were stained with crystal violet. Cells were counted under a microscope, and triplicate results are expressed as means±SEM.

The next experiment has as its system HCC827 cells. Briefly: Cell viability assay (CellTiterGLO), parental HCC827 cells. Conditions: 1 μM alone.
The test system of another experiment is HCC827 ER3 cells. Kind of experiment: Migration and adhesion, HCC827 ER3 cells. Type of experiment: cell-based, human. The following applies: XL-880 1 μM (FIG. 4c-d). The procedure:
as §6, §7

The next experiment concerns AXL. Kind of experiment: pAXL western blot in HCC827 cells expressing AXL L620M. Format: cell-based, human. The procedure: Cancer research 69, 8009-8016 (2009); Yun, C. H. et al. PNAS 105, 2070-2075 (2008)] (FIG. 18).
as §2, §5

The test system of the next experiment is HCC827ER cells. Kind of experiment: Combination index (CI) analysis with erlotinib. Type of experiment: cell-based, human. The following applies: ER1 and ER4 sublines; 1:1 ratio; CI < 1 = synergism. The source says: Combination index (CI) analysis. […] The fraction affected (Fa) (i.e., Fa of 0.25 is equivalent to 75% viable cells) and CI values processed using CalcuSyn software (Biosoft, Cambridge, UK). CI values of less than 1, 1, and greater than 1 were taken as synergism, additive effect, and antagonism, respectively.

The mark [4] stands for this setting: ER4 cells, 0.1, 1, 10 micromolar in combination with erlotinib.

Procedure for H3255 cells: (§8) Cell growth and viability assays. Cells were seeded at a density of 3000 cells/well in 96-well plates in RPMI 1640 containing 10% FBS overnight, then treated with respective agents for an additional 3 days. Viable cell numbers were determined using CellTiterGLO or MTS assay kit, as indicated in the descriptions of the drawings, according to the manufacturer's protocols (Promega, Madison, Wis., USA). Each assay consisted of 3 replicate wells and was repeated at least twice. Data were expressed as the percentage survival of control calculated from the absorbance, corrected for background.
Procedure for HCC827 ER1-ER5 sublines: as §8

With `C[C@@H](Oc1cc(-c2cnn(C3CCNCC3)c2)cnc1N)c1c(Cl)ccc(F)c1Cl` [Crizotinib, crizotinib], the “effect on sensitivity to erlotinib” value in the experiment with HCC827 ER1-ER5 sublines (ER cells, at 10 μM, in combination with erlotinib) is listed as “confers dose-dependent sensitivity to erlotinib”.

Consider `CC(C)n1nc(-c2ccc(NC(=O)Nc3cc(C(F)(F)F)ccc3F)cc2)c2c(N)ncnc21` [AD80], for which, in the experiment on HCC827 ER1-ER5 sublines (setting [4]), the “effect on sensitivity to erlotinib” value is “confer dose-dependent sensitivity to erlotinib”. Also, the “apoptosis (PARP cleavage and BIM induction) combined with erlotinib” value with ER4 cells is on record as “enhances apoptosis”.

One may read the IC50 as the concentration that gives 50% inhibition. Take `C#Cc1cccc(Nc2ncnc3cc(OCCOC)c(OCCOC)cc23)c1` [Erlotinib, erlotinib]: the “tumor response to erlotinib treatment” value in the experiment on HCC827 ER1 tumors is “erlotinib-resistant”; with HCC827 xenograft tumors (parental HCC827 tumors, 12.5 mg/kg/day), “sensitive”. Besides, the “effect on pERK, pAKT, pRelA and Parp cleavage” value with parental HCC827 cells [1] was “decreased pERK, pAKT and pRelA (a marker of NF-kB signaling) and increased Parp cleavage”. The “effect on pEGFR” value with parental HCC827 cells [1] (parental HCC827) was “decreased pEGFR”; with HCC827 ER1 and ER2 cells (erlotinib 100 nM, ER1 and ER2 sublines) it was “decreased pEGFR”. The “Maximum Volume Reduction (% change from baseline)” value in the experiment on HCC827 xenograft tumors (erlotinib 25 mg/kg, 10 tumors per group, average) was −69 % change from baseline. In addition, in the experiment on HCC827 xenograft tumors (erlotinib 25 mg/kg, median ± SEM), the “Time to Maximum Volume Reduction (weeks)” value was 5 ± 0.2 weeks. Also, the concentration for half-maximal inhibition (IC50) in the experiment with PC9 cells was approximately 25 nM; with H3255 ER sublines (Homo sapiens, NCI-H3255, read-out: erlotinib IC50, 2 isogenic erlotinib-resistant sublines of H3255 (EGFR L858R)) it was more than 1000 nM; with H3255 cells it was approximately 15 nM. For the same molecule, the “effect on pEGFR, pErbB3 and pMET in tumors” value with HCC827 tumors (sensitive tumors at 48 h and resistant tumors at each dose, vs vehicle) is “decreased levels of pEGFR, pErbB3, and pMET”. For the same molecule, the “effect on pAKT, pERK, pRelA and Parp cleavage in tumors” value with HCC827 tumors (sensitive tumors, 48 h treatment, 12.5 mg/kg/day) is “decreased pAKT, pERK, and pRelA and increased Parp cleavage”.

With `COc1cc2c(Oc3ccc(NC(=O)C4(C(=O)Nc5ccc(F)cc5)CC4)cc3F)ccnc2cc1OCCCN1CCOCC1` [XL-880, foretinib], the “ability to restore erlotinib sensitivity” value in experiment [2] (XL-880 1 μM, HCC827 cells expressing AXL L620M) was “abrogated the ability”. Further, the “effect on erlotinib resistance induced by overexpression of WT AXL” value in experiment [2] (XL-880 1 μM, HCC827 cells overexpressing WT AXL) is recorded as “reversed”. Further, the “change of IC50 for XL-880” value in [2] (expression of AXL L620M gatekeeper mutant) is “significantly increased”. The “effect on migration and adhesion” value with parental HCC827 cells [3] is “had no effect”; in the experiment on HCC827 ER3 cells, “inhibited migration and adhesion”. The “effect of single-agent treatment on cell viability” value in the experiment with HCC827 ER1-ER5 sublines and with HCC827 cells was “did not significantly affect the viability” throughout. Besides, the “effect on sensitivity to concurrent erlotinib treatment” value with HCC827 ER1-ER5 sublines and with H3255 ER sublines was “restored sensitivity to concurrent erlotinib treatment” in each case. The “erlotinib effects (decreased pEGFR, pERK, pAKT, pRelA, increased cleaved Parp) with concurrent AXL inhibitor” value in the experiment on HCC827 ER1 and ER2 cells is listed as “observed only upon concurrent treatment”. For the same molecule, the “ability to decrease pAXL” value in the experiment with AXL is “blocked the ability”.

For the molecule `S=C(NCc1ccc2c(c1)OCO2)N1CCN(c2ncnc3c2oc2ccccc23)CC1` [MP-470, amuvatinib], the “effect of single-agent treatment on cell viability” value with HCC827 ER1-ER5 sublines and in the experiment with HCC827 cells was “did not significantly affect the viability” each time. Besides, the “effect on sensitivity to concurrent erlotinib treatment” value with HCC827 ER1-ER5 sublines and in the experiment on H3255 ER sublines was “restored sensitivity to concurrent erlotinib treatment” in each case. The “synergy with concurrent erlotinib treatment (combination index)” value with HCC827ER cells is listed as “synergistic”. Moreover, the “erlotinib effects (decreased pEGFR, pERK, pAKT, pRelA, increased cleaved Parp) with concurrent AXL inhibitor” value with HCC827 ER1 and ER2 cells was “observed only upon concurrent treatment”.

With `CC(C)n1nc(-c2ccc(NC(=O)Nc3cccc(C(F)(F)F)c3)cc2)c2c(N)ncnc21` [AD57], the “effect on sensitivity to erlotinib” value with HCC827 ER1-ER5 sublines (setting [4]) is “confer dose-dependent sensitivity to erlotinib”. Also, in the experiment on ER4 cells, the “apoptosis (PARP cleavage and BIM induction) combined with erlotinib” value was “enhances apoptosis”.
